Legend:
[1] = Radio-HPLC metabolite analysis; format: in vivo; conditions: HCT116 tumour bearing mice, i.v., 30 min post injection, plasma, liver, kidney, urine, FIG. 5
Description: [^18F]FTT was produced using the method described above. HCT116 tumour bearing mice were injected intravenously via the lateral tail vein with [^18F]FTT (3.7 MBq) and after 30 min post injection were sacrificed by exsanguination via cardiac puncture under isofluorane anesthesia and then tissue removed. Samples were then snap frozen using dry ice and stored until use. To plasma (0.2 ml) was added ice-cold acetonitrile (1.5 ml) and the sample centrifuged (3 min, 4° C., 15493×g). The supernatant was then decanted and evaporated to dryness using a rotary evaporator (bath temperature 40° C.). The sample was then redissolved in 10% ethanol in PBS (1.1 ml) and filtered through a 0.22 μm filter and then injected. Tumour, liver and kidney samples were homogenised in ice-cold acetonitile (1.5 ml) using an IKA Turrax homogeniser and then processed as for plasma samples. Urine samples were diluted with 10% ethanol in PBS (1.1 ml) and filtered through a 0.22 μm filter and then injected.
HPLC conditions: Agilent 1100 series HPLC system (Agilent Technologies, Stockport, UK) equipped with a γ-RAM Model 3 gamma-detector (IN/US Systems Inc., Florida, USA) and the Laura 3 software (LabLogic, Sheffield, UK). […]

HCT116 cells = test: Acid insoluble fraction measurements (radiotracer incorporation into DNA); format: cell-based; conditions: HCT116 human colon cancer cells in culture
Description: Acid extraction was performed to separate radioactivity associated with small molecules, RNA, and proteins from that of DNA. HCT116 cells were cultured in triplicate in 100 mm dishes and the cells were used for DNA extraction at 24 hr. Briefly 5 ml of the assay medium containing 50 μCi of tracer was added to each dish and the dishes incubated at 37° C. for 60 min. After incubation, the medium was removed, and cells were washed twice with ice-cold phosphate-buffered saline (PBS) and 100 μl aliquots of the washings were placed in counting tubes for counting. After washing, the cells were harvested by scraping, collected into counting tubes and then centrifuged at 1200 g at 4° C. for 10 minutes. The cells were homogenized in 1 mL of ice-cold 10% perchloric acid ([…] and centrifuged. The acid-soluble fraction (supernatant) was removed and 100 μl aliquots were counted in a gamma counter. The radioactivity in the acid-insoluble precipitate (largely DNA) was counted separately.

HCT116 tumour = test: Dynamic PET imaging of tumour bearing mice; format: in vivo
Description: All animal experiments were done by licensed investigators in accordance with the United Kingdom Home Office Guidance on the Operation of the Animal (Scientific Procedures) Act 1986 and within guidelines set out by the United Kingdom Coordinating Committee for Cancer Research's Ad hoc Committee on Welfare of Animals in Experimental Neoplasia. Both tumour-bearing (Balb/c nude mice) and non-tumour bearing (Balb/c mice) animals were used. Human colon, HCT116, tumours were grown in Balb/c nu/nu mice (Harlan) as previously reported. Tumour dimensions were measured continuously using a caliper and tumour volumes were calculated by the equation: volume=(π/6)×a×b×c, where a, b, and c represent three orthogonal axes of the tumour. Mice were used when their tumours reached approximately 100 mm^3
Dynamic [^18F]FTT imaging scans were carried out on a dedicated small animal PET scanner, Siemens Inveon PET module, Siemens Molecular Imaging Inc., Knoxville, USA). The features of this instrument have been described previously. For scanning the tail veins of vehicle- or drug-treated mice were cannulated after induction of anaesthesia (isofluorane/O2/N2O). […] The count densities were averaged for all ROIs at each of the 19 time points to obtain a time versus radioactivity curve (TAC). […]

- metabolic stability [1]: metabolically stable in mice
- tissue pharmacokinetics (time versus radioactivity curves) (HCT116 tumour; 60 min dynamic scan, FIG. 4): simple tissue pharmacokinetics
SMILES: Cc1cn([C@H]2C[C@H](O)[C@@H](CO)S2)c(=O)n(Cc2cn(CC[18F])nn2)c1=O [[^18F]FTT, [^18F]N^3-((1-(2-Fluoroethyl)-1H-[1,2,3]-triazol-4-yl)methyl)-4′-thio-β-thymidine]
- incorporation into tumour cells in culture (HCT116 cells): readily incorporated
- localisation on PET images (HCT116 tumour; i.v. via tail vein, FIG. 3): localisation in tumour, kidney, liver and the early part of the small intestines

Source: patent US20110236312A1, “NUCLEOSIDE ANALOGUES USEFUL AS POSITRON EMISSION TOMOGRAPHY (PET) IMAGING AGENTS” (IMPERIAL INNOVATIONS LIMITED, priority 2008, published 2011)
